Data taken from US6670363B1, “Azole compounds as therapeutic agents for fungal infections” (Ranbaxy Laboratories Limited, priority 2000, dated 2003).
In brackets after ≈: the same amount, converted by molar mass.

Legend:
A. fumigatus s 1008 = assay: In vitro MIC, NCCLS M38P broth method (RPMI 1640/MOPS pH7), Aspergillus fumigatus; type: cell-based; conditions: A. fumigatus strain 1008
Candida = assay: In vitro MIC, NCCLS M27A, Candida species; type: cell-based; set-up: MIC, Candida albicans 1.549 / MIC, Candida albicans Y-01-19 / MIC, C. krusei 766-1 / MIC, C. krusei Q. C / MIC, Candida tropicalis ATCC / MIC, C. glabrata 90030: unit not given beside the values; MIC, Candida albicans A 26 / MIC, C. parapsilosis Q. C.: unit not given here; conditions: for MIC, C. glabrata 90030: C. glabrata strain 90030; for MIC, C. krusei 766-1: C. krusei strain 766-1; for MIC, C. krusei Q. C: C. krusei strain Q. C; for MIC, C. parapsilosis Q. C.: C. parapsilosis strain Q. C.; for MIC, Candida albicans 1.549: Candida albicans strain 1.549; for MIC, Candida albicans A 26: Candida albicans strain A 26; for MIC, Candida albicans Y-01-19: Candida albicans strain Y-01-19
Cryptococcus neoformans = assay: In vitro MIC, NCCLS M27A, Cryptococcus neoformans; type: cell-based; set-up: MIC, C. neoformans I: unit not given beside the values; MIC, C. neoformans M 106: unit not given here; conditions: for MIC, C. neoformans I: C. neoformans strain I; for MIC, C. neoformans M 106: C. neoformans strain M 106
Histoplasma capsulatum = type: cell-based

| Structure (SMILES) | MIC, A. fumigatus 1008 (A. fumigatus s 1008) | MIC, C. glabrata 90030 (Candida) | MIC, C. krusei 766-1 (Candida) | MIC, C. krusei Q. C (Candida) | MIC, C. parapsilosis Q. C. (Candida) | MIC, Candida albicans 1.549 (Candida) | MIC, Candida albicans A 26 (Candida) | MIC, Candida albicans Y-01-19 (Candida) | MIC, Candida tropicalis ATCC (Candida) | MIC, C. neoformans I (Cryptococcus neoformans) | MIC, C. neoformans M 106 (Cryptococcus neoformans) | MIC, H. capsulatum (Histoplasma capsulatum) | melting point |
| --- | --- | --- | --- | --- | --- | --- | --- | --- | --- | --- | --- | --- | --- |
| CCc1ccccc1N1CCN(c2ccc(-n3cnn(CC(O)(Cn4cncn4)c4ccc(F)cc4F)c3=O)cc2)CC1 (stereo not drawn) [Compound 60, 2-[2-(2,4-Difluorophenyl)-2-hydroxy-3-(1H-1,2,4-triazol-1-yl)propyl]-4-{4-[4-(2-ethylphenyl)-1-piperazinyl]phenyl}-3-(2H,4H)-1,2,4-triazolone] | >16 | 0.50 | 1.00 | 0.25 | <0.03 | >16 | <0.03 | 0.25 | <0.03 | <0.03 | <0.03 | < 0.03 µg/mL | 148 to 150 °C |
| O=c1n(-c2ccc(N3CCN(c4ccc([N+](=O)[O-])cc4[N+](=O)[O-])CC3)cc2)cnn1CC(O)(Cn1cncn1)c1ccc(F)cc1F (stereo not drawn) [Compound 40, 2-[2-(2,4-Difluorophenyl)-2-hydroxy-3-(1H-1,2,4-triazol-1-yl)propyl]-4-{4-[4-(2,4-dinitrophenyl)-1-piperazinyl]phenyl}-3-(2H,4H)-1,2,4-triazolone] | 1.56 | 0.80 | 6.25 | 1.56 | 0.05 | 0.40 | <0.02 | 0.40 | 1.56 | 0.05 | 0.20 | 0.05 µg/mL (≈ 0.0771 µM) | 120 to 123 °C |
| Cc1ccc(N2CCN(c3ccc(-n4cnn(CC(O)(Cn5cncn5)c5ccc(F)cc5F)c4=O)cc3)CC2)cc1C (stereo not drawn) [Compound 56, 2-[2-(2,4-Difluorophenyl)-2-hydroxy-3-(1H-1,2,4-triazol-1-yl)propyl]-4-{4-[4-(3,4-dimethylphenyl)-1-piperazinyl]phenyl}-3-(2H,4H)-1,2,4-triazolone] | >16 | 0.25 | 1.00 | 0.25 | <0.03 | 0.06 | <0.03 | 0.03 | <0.03 | <0.03 | 0.03 | 0.004 µg/mL (≈ 0.00682 µM) | 136 to 137 °C |
| Cc1ccc(N2CCN(c3ccc(-n4cnn(CC(O)(Cn5cncn5)c5ccc(F)cc5F)c4=O)cc3)CC2)cc1Cl (stereo not drawn) [Compound 49, 2-[2-(2,4-Difluorophenyl)-2-hydroxy-3-(1H-1,2,4-triazol-1-yl)propyl]-4-{4-[4-(3-chloro-4-methylphenyl)-1-piperazinyl]phenyl}-3-(2H,4H)-1,2,4-triazolone] | 4.00 | 0.25 | 0.25 | 0.06 | <0.03 | <0.03 | <0.03 | <0.03 | <0.03 | <0.03 | <0.03 | < 0.03 µg/mL | 189 to 201 °C |
| O=c1n(-c2ccc(N3CCN(c4ccc(F)c(F)c4F)CC3)cc2)cnn1CC(O)(Cn1cncn1)c1ccc(F)cc1F (stereo not drawn) [Compound 63, 2-[2-(2,4-Difluorophenyl)-2-hydroxy-3-(1H-1,2,4-triazol-1-yl)propyl]-4-{4-[4-(2,3,4-trifluorophenyl)-1-piperazinyl]phenyl}-3-(2H,4H)-1,2,4-triazolone] | >16 | 0.50 | 8.00 | 0.25 | <0.03 | 0.06 | <0.03 | 0.12 | <0.03 | <0.03 | <0.03 | < 0.03 µg/mL | 186 to 187 °C |
| O=c1n(-c2ccc(N3CCN(c4cc(Cl)cc(Cl)c4)CC3)cc2)cnn1CC(O)(Cn1cncn1)c1ccc(F)cc1F (stereo not drawn) [Compound 61, 2-[2-(2,4-Difluorophenyl)-2-hydroxy-3-(1H-1,2,4-triazol-1-yl)propyl]-4-{4-[4-(3,5-dichlorophenyl)-1-piperazinyl]phenyl}-3-(2H,4H)-1,2,4-triazolone] | >16 | 0.50 | 0.50 | 0.25 | <0.03 | 0.25 | <0.03 | 0.12 | <0.03 | <0.03 | <0.03 | < 0.03 µg/mL | 222 to 225 °C |
